≈ marks a conversion by molar mass, not a printed value. Like-named read-outs stand apart in the source and are kept apart here. Residues, ends and D or L forms follow the SMILES beside them.
Key:
P. aeruginosa = assay: Killing kinetics; assay type: cell-based, Pseudomonas aeruginosa; details: 2 µM peptide (1×MBC), 37°C, triplicates
Method: (§1) For measurement of killing kinetics, bacteria and peptides were prepared as described above. Fifty µl of bacteria were mixed with fifty µl of peptides at the concentrations corresponding to MBC and were incubated at 37°C. At the indicated time, bacteria were serially diluted and placed on Mueller-Hinton broth agar plates for the viability measurement.

E. coli = assay: Killing kinetics; assay type: cell-based, Escherichia coli; details: 4 µM peptide (1×MBC), 37°C, triplicates
Method: as §1

[1] = LPS/Lipid A competition ELISA; assay type: binding; details: 10 nM peptide, 1 µg LPS per well, E. coli Lipid A 0 to 10 µg/ml, 1 hour 37°C
Method: Several kinds of peptide-LPS or peptide-Lipid A binding assays were performed in this study: 1) Streptavidine-conjugated beads (Dynabeads MyOne Streptavidin T1, Invitrogen) were blocked by P. aeruginosa LPS (Sigma) at 37°C for 1.5 hour. After washing with PBST (PBS, pH 7.4 containing 0.1% (w/v) Tween-20), aliquots containing 250 pmol streptavidine-conjugated beads were incubated with a reaction mixture overnight at 4°C. The reaction mixture was prepared by mixing increasing amounts of biotinylated peptide HBc147-183 (0, 0.004, 0.02, 0.1, 0.5 and 2.5 µM) and 5 µg/ml P. aeruginosa LPS (Sigma) or 200 µg/ml E. coli lipid A (Sigma), at 37°C for 3 hour. After incubation overnight at 4°C, the reduction of LPS (or Lipid A) in the supernatants were measured by the Limulus Amebocyte Lysate (LAL) test (Charles River Endosafe) with an ELISA reader (Molecular Devices). The amount (EU/ml) of LPS was calculated according to the standard curve prepared with Endosafe Control Srandard Endotoxin. […] After trypsinization, the trypsin-released LPS in the supernatants were collected and measured by the Limulus Amebocyte Lysate (LAL) test. […] Plate-bound HBc147-183 was measured by streptavidin conjugated with HRP (1∶10000 dilution) for 1 hour at 37°C. […] The absorption was measured at 450 nm with a reference wavelength at 655 nm.

E. coli (ATCC 25922) = assay type: cell-based, Escherichia coli; details: 3 h at 37°C in phosphate buffer pH 7.2; triplicate
Summary of the method: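 Mid-log cultures grown in Mueller–Hinton broth were diluted to 10^6 CFU/ml in 10 mM sodium phosphate, 50 mM NaCl, pH 7.2, mixed with serially diluted HBc ARD peptides, and held 3 hours at 37°C without shaking. Survivors were plated on Mueller–Hinton agar overnight at 37°C to define MBC; triplicates.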

A. baumannii TCGH45530 = assay type: cell-based, Acinetobacter baumannii; details: TCGH45530, 3 h
Text: (§2) Clinical isolates of Pseudomonas aeruginosa (NHRI-01, NHRI-02 and NHRI-04) were obtained through the program of Taiwan Surveillance of Antimicrobial Resistance (TSAR), National Health Research Institutes (NHRI), Taiwan. Acinetobacter baumannii (ATCC 17989, ATCC 17978 CR, ATCC19606, ATCC 19606 CR, TCGH 45530 and TCGH 46709) were obtained from Tzu-Chi Buddhist General Hospital (TCGH) in Taiwan, and clinical isolates (TCGH 45530 and TCGH 46709) were identified using the Vitek system (Biomerieux Vitek, Inc., Hazelwood, MO, USA). A. baumannii is defined as multidrug-resistant, when the organism is resistant to piperacillin, piperacillin-tazobactam, ampicillin/sulbactam, imipenem, ceftazidime, gentamicin, amikacin, tetracycline, chloramphenicol, ciprofloxacin, and cotrimoxazole. Susceptibility to colistin was determined using the broth-dilution method, in accordance with the guidelines of the Clinical and Laboratory Standards Institute (CLSI).
(§3) All peptides were purchased from Yao-Hong Biotechnology Inc. (Taipei, Taiwan). Vendors provided data of peptide characterizations, including HPLC and Mass (data not shown). Antimicrobial activity was determined as described with some modifications as detailed below. Bacteria were grown overnight in Mueller–Hinton broth (Difco) at 37°C, and during the mid-logarithmic phase, bacteria were diluted to 10^6 CFU (colony formation unit)/ml in phosphate buffer (10 mM sodium phosphate and 50 mM sodium chloride, pH 7.2). Peptides were serially diluted in the same buffer. Fifty microliter (µl) of bacteria was mixed with fifty µl of peptides at varying concentrations followed by incubation at 37°C for 3 hours without shaking. At the end of incubation, bacteria were placed on Mueller-Hinton broth agar plates, and allowed growth at 37°C overnight for measurement of minimal bactericidal concentration (MBC). […] All peptides were tested in triplicate.

A. baumannii TCGH46709 = assay type: cell-based, Acinetobacter baumannii; details: TCGH46709, 3 h
Text: as §2, §3

A. baumannii ATCC17978 = assay type: cell-based, Acinetobacter baumannii; details: text summary over the A. baumannii strains of Table 2
Text: as §2, §3

[2] = test system: A. baumannii ATCC17978 CR; assay type: cell-based, Acinetobacter baumannii; details: colistin-resistant A. baumannii of Table 2
Text: as §2, §3

A. baumannii ATCC19606 = assay type: cell-based, Acinetobacter baumannii; details: ATCC19606, 3 h
Text: as §2, §3

[3] = test system: A. baumannii ATCC19606 CR; assay type: cell-based, Acinetobacter baumannii; details: Induced Colistin resistant strain; colistin susceptibility by broth-dilution (CLSI)
Text: as §2, §3

C. albicans (ATCC 10231) = assay type: cell-based, Candida albicans
Method: The antimicrobial activities of HBc ARD peptides were tested using a number of bacterial strains from ATCC, including Pseudomonas aeruginosa Migula strain (ATCC 27853, ampicillin-resistant), Pseudomonas aeruginosa Migula strain (ATCC 9027, ampicillin-resistant), Klebsiella pneumoniae strain (ATCC 17593), Escherichia coli strain (ATCC 25922), Staphylococcus aureus subsp. strain (ATCC 25923, methicillin-resistant), Staphylococcus aureus subsp. strain (ATCC 29213, methicillin-resistant), Staphylococcus aureus subsp. strain (ATCC 19636, methicillinresistant), and Candida albicans strain (ATCC 10231).
as §3

Q: For `CC(C)[C@H](NC(=O)[C@@H](NC(=O)[C@@H](N)[C@@H](C)O)C(C)C)C(=O)N[C@@H](CCCNC(=N)N)C(=O)N[C@@H](CCCNC(=N)N)C(=O)N[C@@H](CCCNC(=N)N)C(=O)NCC(=O)N[C@@H](CCCNC(=N)N)C(=O)N[C@@H](CO)C(=O)N1CCC[C@H]1C(=O)N[C@@H](CCCNC(=N)N)C(=O)N[C@@H](CCCNC(=N)N)C(=O)N[C@@H](CCCNC(=N)N)C(=O)N[C@H](C(=O)N1CCC[C@H]1C(=O)N[C@@H](CO)C(=O)N1CCC[C@H]1C(=O)N[C@@H](CCCNC(=N)N)C(=O)N[C@@H](CCCNC(=N)N)C(=O)N[C@@H](CCCNC(=N)N)C(=O)N[C@@H](CCCNC(=N)N)C(=O)N[C@@H](CO)C(=O)N[C@@H](CCC(N)=O)C(=O)N[C@@H](CO)C(=O)N1CCC[C@H]1C(=O)N[C@@H](CCCNC(=N)N)C(=O)N[C@@H](CCCNC(=N)N)C(=O)N[C@@H](CCCNC(=N)N)C(=O)N[C@@H](CCCNC(=N)N)C(=O)N[C@@H](CO)C(=O)N[C@@H](CCC(N)=O)C(=O)N[C@@H](CO)C(=O)N[C@@H](CCCNC(=N)N)C(=O)N[C@@H](CCC(=O)O)C(=O)N[C@@H](CO)C(=O)N[C@@H](CCC(N)=O)C(=O)N[C@@H](CS)C(=O)O)[C@@H](C)O` [HBc147-183] (H-TVVRRRGRSPRRRTPSPRRRRSQSPRRRRSQSRESQC-OH; N-terminus and C-terminus assumed), which “Time to complete killing” value (P. aeruginosa) is on record?
A: ≤ 20 min

Q: What about the “Time to complete killing” value (E. coli) of the same compound?
A: 180 min

Q: And the “Binding of peptide to plate-coated LPS with increasing Lipid A” value [1]?
A: significantly decreased

Q: And the “Antimicrobial activity, MBC” value (E. coli (ATCC 25922))?
A: 18.36 µg/mL

Q: And the MBC (A. baumannii TCGH45530)?
A: 2.30 µg/mL (≈ 0.501 µM)

Q: What about the MBC (A. baumannii TCGH46709) of the same compound?
A: 4.59 µg/mL (≈ 1 µM)

Q: What about the “MBC against colistin-sensitive and colistin-resistant A. baumannii” value (A. baumannii ATCC17978) of the same compound?
A: 0.5 to 1 µM

Q: And the “MBC against all tested colistin-resistant A. baumannii” value [2]?
A: 0.5 to 1 µM

Q: What about the MBC (A. baumannii ATCC19606) of the same compound?
A: 2.30 µg/mL (≈ 0.501 µM)

Q: What about the MBC [3] of the same compound?
A: 2.30 µg/mL (≈ 0.501 µM)

Q: What about the “Antimicrobial activity, MBC” value (C. albicans (ATCC 10231); ATCC 10231, 3 h, pH 7.2) of the same compound?
A: ~8 µM

Q: And the “Antimicrobial activity, MBC” value (C. albicans (ATCC 10231); fungi, 3 h at 37°C in phosphate buffer pH 7.2, triplicate)?
A: ~36.7 µg/mL

From PMC3681751, “Identification of a Novel Antimicrobial Peptide from Human Hepatitis B Virus Core Protein Arginine-Rich Domain (ARD)” (PLoS Pathogens, 2013)
